The text below walks through data of patent publication US9441016B2, “Complete genome sequence of the methanogen Methanobrevibacter ruminantium” (Pastoral Greenhouse Gas Research Ltd., priority 2009, dated 2016).

Assay [1] addresses 3-hydroxy-3-methylglutaryl-CoA reductase (HMGR) (Methanobrevibacter ruminantium, UniProt D3E332). Description: HMGR activity assay measuring oxidation of NADPH. The assay is classed as biochemical. The conditions noted are these: for Km: substrate of HMGR, assays at 37° C, pH 6.5.
The subject of assay [2] is M. ruminantium M1. As to the kind of experiment: Stimulation of growth of M1 by alcohols. The assay is classed as cell-based, Methanobrevibacter ruminantium. The conditions noted are these: for culture density (OD600 nm): M1 grown on H2, compared to H2 alone. The method, then: M1 was grown in medium RM02 in anaerobic culture tubes (16 mm internal diameter, 18 mm outer diameter, 150 mm long; Bellco Glass, Vineland, N.J., USA), essentially as described by Balch and Wolfe, 1976. The mineral salts base of RM02 contained (per liter of medium): 1.4 g of KH2PO4, 0.6 g of (NH4)2SO4, 1.5 g of KCl, 1 ml trace element solution […] et al., 1983), 1 ml of selenite/tungstate solution ([…] and […], 1984) and 4 drops of 0.1% (w/v) resazurin solution. This solution was mixed and then boiled under O2-free 100% CO2, before being cooled in an ice bath while it was bubbled with 100% CO2. Once the medium was cool, 4.2 g of NaHCO3 and 0.5 g of L-cysteine.HCl.H2O was added per liter. The medium was dispensed into the culture tubes while being gassed with 100% CO2, at 9.5 ml of medium per tube, and the tubes sealed with blue butyl septum stoppers and aluminium seals (Bellco), with a headspace of 100% CO2. These tubes were sterilised by autoclaving for 20 min at 121° C. Before use, the tubes were stored in the dark for at least 24 h. Sodium acetate (20 mM final conc.), sodium formate (60 mM final conc.), coenzyme M (10 μM final conc.), and vitamin-supplemented clarified rumen fluid were added to sterile media, before inoculation with 0.5 ml of an actively growing culture of M. ruminantium, then gassed with H2 plus CO2 (4:1) to 180 kPa overpressure. In some experiments, the formate was omitted, and alcohols were added, as noted in the experimental descriptions accompanying the results. The culture tubes were incubated on their sides, at 39° C. in the dark, on a platform shaken at 200 rpm. Growth of M1 was followed by measuring the culture density at 600 nm by inserting the tubes directly into an Ultrospec 1100 pro UV/Vis spectrophotometer (Amersham Biosciences, Little Chalfont, Buckinghamshire, UK). […] In the experiments testing the effects of PeiR addition, the culture densities were mathematically normalised to an OD600 of 0.1 at the time the additions were made, and all other readings corrected by the same ratio. This was done to remove the effect of lack of absolute synchronicity between cultures, a common phenomenon when culturing methanogens. This normalisation was not done for experiments testing the utilisation of alcohols. Methane was measured by gas chromatography, taking a 0.3 ml sample from the culture headspace, at the pressure in the culture tube, and injecting it into an Aerograph 660 (Varian Associates, Palo Alto, Calif., USA) fitted with a Porapak Q 80/100 mesh column (Waters Corporation, Milford, Mass., USA) and a thermal conductivity detector operated at 100° C. The column was operated at room temperature with N2 as the carrier gas at 12 cm^3/min.

The subject of assay [3] is M. ruminantium M1. As to the kind of experiment: Effect of the lytic enzyme PeiR on M1 growth in vitro (culture density, methane). The assay is classed as cell-based, Methanobrevibacter ruminantium. The protocol:
M1 was grown in medium RM02 in anaerobic culture tubes (16 mm internal diameter, 18 mm outer diameter, 150 mm long; Bellco Glass, Vineland, N.J., USA), essentially as described by Balch and Wolfe, 1976. The mineral salts base of RM02 contained (per liter of medium): 1.4 g of KH2PO4, 0.6 g of (NH4)2SO4, 1.5 g of KCl, 1 ml trace element solution […] et al., 1983), 1 ml of selenite/tungstate solution ([…] and […], 1984) and 4 drops of 0.1% (w/v) resazurin solution. This solution was mixed and then boiled under O2-free 100% CO2, before being cooled in an ice bath while it was bubbled with 100% CO2. Once the medium was cool, 4.2 g of NaHCO3 and 0.5 g of L-cysteine.HCl.H2O was added per liter. […] In the experiments testing the effects of PeiR addition, the culture densities were mathematically normalised to an OD600 of 0.1 at the time the additions were made, and all other readings corrected by the same ratio. […] Methane was measured by gas chromatography, taking a 0.3 ml sample from the culture headspace, at the pressure in the culture tube, and injecting it into an Aerograph 660 (Varian Associates, Palo Alto, Calif., USA) fitted with a Porapak Q 80/100 mesh column (Waters Corporation, Milford, Mass., USA) and a thermal conductivity detector operated at 100° C. […]

In assay [4] the test system is Mbb. ruminantium A1Ao ATP synthase. As to the kind of experiment: ATP hydrolysis by A1Ao ATP synthase with inhibitors (inorganic phosphate assay). The assay is classed as biochemical, Methanobrevibacter ruminantium. The settings on record: in high concentrations. The text has this:
Two enzyme preparations were studied. Purified ATP synthase from BL21 and recombinant enzyme expressed in E. coli DK8 membranes. Purified […] ATP synthase was examined for ATPase activity using the inorganic phosphate assay. […] TBT is a well characterized Fo and Ao channel inhibitor of ATP synthases. To examine the coupling ion used by the Mbb. ruminantium […] ATP synthase, the effect of amiloride, a known Na^+-coupled V-type ATPase and Na^+ channel inhibitor was also examined. […] E. coli DK8 (Δatp) inverted membranes containing the recombinant […]-ATPase were used to determine the effects of the inhibitors TBT (200 μM) and DCCD (250 μM) at different pH values. ATPase activity was measured in presence of 130 mM Na^+ (FIG. 30A) and in absence of Na^+ (FIG. 30B). After preincubation with the inhibitor for 20 min at room temperature ([…]), the reaction was started at 39° C. by addition of Na2-ATP or Tris-ATP to a final concentration of 2.5 mM. 0.5 mg inverted membrane vesicles was used in each end-point assay. […] FIGS. 30A and 30B). […] FIG. 30C). Amiloride inhibition of ATP hydrolysis of the Mbb. ruminantium […] ATP synthase was evaluated next. […] FIG. 30D). […] FIG. 31A). Amiloride inhibition of ATP hydrolysis of purified recombinant Mbb. ruminantium […] ATP synthase was further tested in DK8 and native membranes. […] FIG. 31B).

What is called Ki is the dissociation constant of the complex between target and ligand, obtained from inhibition or displacement. `CC[C@H](C)C(=O)O[C@H]1C[C@@H](C)C=C2C=C[C@H](C)[C@H](CC[C@@H]3C[C@@H](O)CC(=O)O3)[C@H]21` [lovastatin, reference compound]: in assay [1], the affinity, expressed as Ki, was 8.5 ± 1.1 µM. `CCC(C)(C)C(=O)O[C@H]1C[C@@H](C)C=C2C=C[C@H](C)[C@H](CC[C@@H]3C[C@@H](O)CC(=O)O3)[C@H]21` [simvastatin, reference compound] gave a Ki in assay [1] of 3.7 ± 0.65 µM. In the case of `CO` [methanol], the “culture density (OD600 nm)” value with M. ruminantium M1 [2] (20 mM) is “increase in culture density”. Also, in the assay on M. ruminantium M1 [2] (no H2 added), the growth entry is recorded as “No growth occurred” and the methane formation entry is given as “no methane was formed”. In the case of `ClC(Cl)Cl` [Chloroform], the methane yield entry with M. ruminantium M1 [3] (0.1 ml added to 10 ml culture at mid-exponential phase) is given as “similarly reduced methane yield”. The culture density entry in the assay with M. ruminantium M1 [3] (0.1 ml added to 10 ml culture, compared with PeiR) is “decrease in culture density was less”. As for `C(=NC1CCCCC1)=NC1CCCCC1` [DCCD], the “ATP hydrolysis activity, sensitivity to inhibitor” value in assay [4] was “sensitive”. In general, Km refers to the concentration of substrate that gives half-maximal velocity. As to `NC(=O)C1=CN([C@@H]2O[C@H](COP(=O)(O)OP(=O)(O)OC[C@H]3O[C@@H](n4cnc5c(N)ncnc54)[C@H](OP(=O)(O)O)[C@@H]3O)[C@@H](O)[C@H]2O)C=CC1` [NADPH], in assay [1], the Km was found to be 165 ± 35 µM. For the compound `CC(C)(CO[P@@](=O)(O)O[P@@](=O)(O)OC[C@H]1O[C@@H](n2cnc3c(N)ncnc32)[C@H](O)[C@@H]1OP(=O)(O)O)[C@@H](O)C(=O)NCCC(=O)NCCSC(=O)C[C@@](C)(O)CC(=O)O` [HMG-CoA], the Km in assay [1] is 12.4 ± 1.83 µM. For `CC(C)O` [isopropanol], in the assay on M. ruminantium M1 [2] (5 to 20 mM, M1 grown on H2), the stimulation of growth result is reported as “no stimulation”. In addition, in the assay on M. ruminantium M1 [2] (no H2 added), the growth entry is reported as “No growth occurred” and the methane formation result is given as “no methane was formed”. Regarding `N=C(N)NC(=O)c1nc(Cl)c(N)nc1N` [amiloride], the “ATP hydrolysis activity, sensitivity to inhibitor” value in assay [4] is reported as “sensitive”. Take `CCO` [ethanol]: the growth entry in the assay on M. ruminantium M1 [2] (20 mM, M1 grown on H2) is “some inhibition of growth”. In addition, the “culture density (OD600 nm)” value in the assay on M. ruminantium M1 [2] (5 or 10 mM) was “increase in culture density”. Further, in the assay with M. ruminantium M1 [2] (no H2 added), the growth entry is recorded as “No growth occurred” and the methane formation entry is listed as “no methane was formed”.

Turning to `CCC[CH2][Sn]([CH2]CCC)[CH2]CCC` [TBT, tributylin], the “ATP hydrolysis activity, sensitivity to inhibitor” value in assay [4] is on record as “sensitive”.
